# Target: T1, mutant CFTR (Homo sapiens, UniProt P13569, DEL508-508)
# T1 construct: expressed in transfected cells
# Test: Fluorescence (HS-YFP) assay for CFTR activity, corrector assay
# Type: cell-based
# Settings: CFBE41o- and FRT cells with stable expression of mutant CFTR, read-out: activity (EC50)
# T1 sequence (P13569 with tags, fused parts or gaps DEL508-508): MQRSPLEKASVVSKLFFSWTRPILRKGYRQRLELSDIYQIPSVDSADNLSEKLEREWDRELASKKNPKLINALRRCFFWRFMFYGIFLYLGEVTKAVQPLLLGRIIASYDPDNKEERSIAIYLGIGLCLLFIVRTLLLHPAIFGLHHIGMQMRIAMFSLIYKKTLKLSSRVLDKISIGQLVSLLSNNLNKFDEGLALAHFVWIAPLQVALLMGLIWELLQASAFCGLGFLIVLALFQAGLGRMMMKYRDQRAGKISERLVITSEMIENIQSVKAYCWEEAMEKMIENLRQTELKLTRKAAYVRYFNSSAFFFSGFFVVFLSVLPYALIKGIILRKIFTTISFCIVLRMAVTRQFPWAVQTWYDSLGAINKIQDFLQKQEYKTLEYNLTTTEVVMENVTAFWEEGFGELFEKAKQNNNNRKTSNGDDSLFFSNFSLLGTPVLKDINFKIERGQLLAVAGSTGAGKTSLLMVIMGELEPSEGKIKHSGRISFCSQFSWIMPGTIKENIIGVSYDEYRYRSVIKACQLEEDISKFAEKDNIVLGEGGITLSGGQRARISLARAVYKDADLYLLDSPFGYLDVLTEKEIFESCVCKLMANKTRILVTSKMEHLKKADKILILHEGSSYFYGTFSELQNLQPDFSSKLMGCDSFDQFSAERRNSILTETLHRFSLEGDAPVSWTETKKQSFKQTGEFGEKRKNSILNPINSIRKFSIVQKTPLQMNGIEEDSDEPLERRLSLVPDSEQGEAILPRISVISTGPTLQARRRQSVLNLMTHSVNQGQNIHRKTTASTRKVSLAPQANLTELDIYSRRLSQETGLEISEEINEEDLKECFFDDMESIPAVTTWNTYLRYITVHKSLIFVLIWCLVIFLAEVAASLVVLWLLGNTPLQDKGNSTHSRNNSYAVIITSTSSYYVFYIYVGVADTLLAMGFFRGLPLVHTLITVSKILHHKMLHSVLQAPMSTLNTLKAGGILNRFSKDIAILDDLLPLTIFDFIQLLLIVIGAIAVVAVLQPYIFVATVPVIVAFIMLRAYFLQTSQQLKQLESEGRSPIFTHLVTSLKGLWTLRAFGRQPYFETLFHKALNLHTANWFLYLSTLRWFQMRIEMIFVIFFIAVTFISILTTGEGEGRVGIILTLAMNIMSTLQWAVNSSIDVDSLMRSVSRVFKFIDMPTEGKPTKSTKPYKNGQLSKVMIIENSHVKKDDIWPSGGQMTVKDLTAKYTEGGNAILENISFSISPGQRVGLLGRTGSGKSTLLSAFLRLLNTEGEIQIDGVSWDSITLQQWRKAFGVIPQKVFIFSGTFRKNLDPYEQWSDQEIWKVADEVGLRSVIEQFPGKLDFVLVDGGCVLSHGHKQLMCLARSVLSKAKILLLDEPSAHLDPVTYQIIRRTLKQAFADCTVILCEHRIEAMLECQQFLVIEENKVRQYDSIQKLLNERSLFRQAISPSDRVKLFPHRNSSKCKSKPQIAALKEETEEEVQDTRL
row,Structure (SMILES),EC50 [µM]
1,"CC(C)N1CCc2c(c(C(F)(F)F)nn2-c2cccc(C(=O)N(C)c3ccc4c(c3)OCO4)c2)C1 [Compound 021, N-(1,3-Benzodioxol-5-yl)-3-[5-isopropyl-3-(trifluoromethyl)-6,7-dihydro-4H-pyrazolo[4,3-c]pyridin-1-yl]-N-methyl-benzamide]",< 1
2,"CN(C(=O)c1cccc(-n2nc(C(F)(F)F)c3c2C(n2cc(C(=O)O)ccc2=O)COC3)c1)c1ccc2c(c1)OC(F)(F)O2 (racemic) [Compound 301, (rac)-6-oxo-1-[1-[3-[(2,2-difluoro-1,3-benzodioxol-5-yl)-methyl-carbamoyl]phenyl]-3-(trifluoromethyl)-6,7-dihydro-4H-pyrano[4,3-c]pyrazol-7-yl]pyridine-3-carboxylic acid]",1 to 2
3,"CN1CCc2c(C(F)(F)F)nn(-c3cccc(C(=O)N(C)c4ccc5c(c4)OCO5)c3)c2C1 [Compound 029, N-(1,3-Benzodioxol-5-yl)-N-methyl-3-[6-methyl-3-(trifluoromethyl)-5,7-dihydro-4H-pyrazolo[3,4-c]pyridin-1-yl]benzamide]",< 1
4,Cc1nc2ccc(N(C)C(=O)c3cccc(-n4nc(C(F)(F)F)c5c4C(Oc4ncc(C(=O)O)cn4)COC5)c3)cc2o1 (racemic) [Compound 297],< 1
5,"CC(C)Oc1cc(N(C)C(=O)c2cccc(-n3nc(C(F)(F)F)c4c3C(Oc3ccc(C(=O)O)cc3)CCC4)c2)ccn1 (racemic) [Compound 317, 4-[[1-[3-[(2-Isopropoxy-4-pyridyl)-methyl-carbamoyl]phenyl]-3-(trifluoromethyl)-4,5,6,7-tetrahydroindazol-7-yl]oxy]benzoic acid]",1 to 2
6,"O=C(O)c1ccc(OC2CCCc3c(C(F)(F)F)nn(-c4cccc(C(=O)Nc5ccc6c(c5)OC(F)(F)O6)c4)c32)cc1 (centres unmarked) [Compound 253, 4-[[1-[3-[(2,2-Difluoro-1,3-benzodioxol-5-yl)carbamoyl]phenyl]-3-(trifluoromethyl)-4,5,6,7-tetrahydroindazol-7-yl]oxy]benzoic acid]",> 2
7,"Cc1cn2cc(NC(=O)c3cccc(-n4nc(C(F)(F)F)c5c4CCN(C(=O)C(C)(C)C)C5)c3)ccc2n1 [Compound 084, 3-[5-(2,2-Dimethylpropanoyl)-3-(trifluoromethyl)-6,7-dihydro-4H-pyrazolo[4,3-c]pyridin-1-yl]-N-(2-methylimidazo [1,2-a]pyridin-6-yl)benzamide]",> 2
8,"CN(C(=O)c1cccc(-n2nc(C(F)(F)F)c3c2C(Oc2ccc(C(=O)O)cc2)COC3)c1)c1ccc2c(c1)OC(F)(F)O2 (single isomer, unassigned) [Compound 206, (S) or (R)-4-[[1-[3-[(2,2-Difluoro-1,3-benzodioxol-5-yl)-methyl-carbamoyl]phenyl]-3-(trifluoromethyl)-6,7-dihydro-4H-pyrano[4,3-c]pyrazol-7-yl]oxy]benzoic acid]",< 1
9,"CN(C(=O)c1cccc(-n2nc(C(F)(F)F)c3c2C(Oc2ccc(CC(=O)O)cc2)CCC3)c1)c1ccc2c(c1)OC(F)(F)O2 (racemic) [Compound 318, 2-[4-[[1-[3-[(2,2-Difluoro-1,3-benzodioxol-5-yl)-methyl-carbamoyl]phenyl]-3-(trifluoromethyl)-4,5,6,7-tetrahydroindazol-7-yl]oxy]phenyl]acetic acid]",< 1
10,"CN(C(=O)c1cccc(-n2nc(C(F)(F)F)c3c2C(Oc2ccc(C(=O)O)cc2)CCC3)c1)c1ccc2c(c1)S(=O)(=O)CC2 (racemic) [Compound 303, 4-[[1-[3-[(1,1-Dioxo-2,3-dihydrobenzothiophen-6-yl)-methyl-carbamoyl]phenyl]-3-(trifluoromethyl)-4,5,6,7-tetrahydroindazol-7-yl]oxy]benzoic acid]",> 2
11,"Cc1nc2ccc(N(C)C(=O)c3cccc(-n4nc(C(F)(F)F)c5c4C(Oc4ccc(C(=O)O)cc4)CCC5)c3)cc2o1 (centres unmarked) [Compound 157, 4-[[1-[3-[Methyl-(2-methyl-1,3-benzoxazol-6-yl)carbamoyl]phenyl]-3-(trifluoromethyl)-4,5,6,7-tetrahydroindazol-7-yl]oxy]benzoic acid]",< 1
12,CN(C(=O)c1cccc(-n2nc(C(F)(F)F)c3c2C(Oc2ccc(C(=O)O)cc2)CCC3)c1)c1ccnc(OC(F)F)c1 (racemic) [Compound 268],< 1
13,"CN(C(=O)c1cccc(-n2nc(C(F)(F)F)c3c2C(Oc2ccc(C(N)=O)cc2)CCC3)c1)c1ccc2c(c1)OC(F)(F)O2 (single isomer, unassigned) [Compound 285, (R) or (S)-3-[7-(4-Carbamoylphenoxy)-3-(trifluoromethyl)-4,5,6,7-tetrahydroindazol-1-yl]-N-(2,2-difluoro-1,3-benzodioxol-5-yl)-N-methyl-benzamide]",< 1
14,"Cc1nc2cc(F)c(N(C)C(=O)c3cccc(-n4nc(C(F)(F)F)c5c4C(Oc4ccc(C(=O)O)cc4)CCC5)c3)cc2o1 (centres unmarked) [Compound 153, 4-[[1-[3-[(5-Fluoro-2-methyl-1,3-benzoxazol-6-yl)-methyl-carbamoyl]phenyl]-3-(trifluoromethyl)-4,5,6,7-tetrahydroindazol-7-yl]oxy]benzoic acid]",< 1
15,"CN(C(=O)c1cccc(-n2nc(C(F)F)c3c2C(Oc2ccc(C(=O)O)cc2)CCC3)c1)c1ccc2c(c1)OC(F)(F)O2 (racemic) [Compound 254, (rac)-4-[[1-[3-[(2,2-difluoro-1,3-benzodioxol-5-yl)-methyl-carbamoyl]phenyl]-3-(difluoromethyl)-4,5,6,7-tetrahydroindazol-7-yl]oxy]benzoic acid]",< 1
16,"CN(C(=O)c1cccc(-n2nc(C(F)(F)F)c3c2C(Oc2ccc(C(=O)O)cc2)CCC3)c1)c1cnc2c(c1)CCC2 (racemic) [Compound 258, (rac)-4-[[1-[3-[6,7-dihydro-5H-Cyclopenta[b]pyridin-3-yl(methyl)carbamoyl]phenyl]-3-(trifluoromethyl)-4,5,6,7-tetrahydroindazol-7-yl]oxy]benzoic acid]",< 1
17,"COC(=O)c1ccc(S(=O)(=O)N2C3CCC2c2c(C(F)(F)F)nn(-c4cccc(C(=O)N(C)c5ccc6c(c5)OCO6)c4)c2C3)cc1 (centres unmarked) [Compound 070, Methyl 4-((1-(3-(benzo[d][1,3]dioxol-5-yl(methyl)carbamoyl)phenyl)-3-(trifluoromethyl)-1,4,5,6,7,8-hexahydro-4,7-epiminocyclohepta[c]pyrazol-9-yl)sulfonyl)benzoate]",< 1
18,"CN(C(=O)c1cccc(-n2nc(C(F)(F)F)c3c2C(Oc2ccc(C(=O)O)cc2)CCC3)c1)c1ccc2c(c1)OC(F)(F)O2 (centres unmarked) [Compound 109, 4-[[1-[3-[(2,2-Difluoro-1,3-benzodioxol-5-yl)-methyl-carbamoyl]phenyl]-3-(trifluoromethyl)-4,5,6,7-tetrahydroindazol-7-yl]oxy]benzoic acid]",< 1
19,"CN(C(=O)c1cccc(-n2nc(C(F)(F)F)c3c2C(Oc2ccc(C(=O)O)cc2)COC3)c1)c1ccnc(OC(F)F)c1 (single isomer, unassigned) [Compound 290, (R) or (S)-4-[[1-[3-[[2-(Difluoromethoxy)-4-pyridyl]-methyl-carbamoyl]phenyl]-3-(trifluoromethyl)-6,7-dihydro-4H-pyrano[4,3-c]pyrazol-7-yl]oxy]benzoic acid]",< 1
20,"COC(=O)c1ccc(S(=O)(=O)N2CCc3c(C(F)(F)F)nn(-c4cccc(C(=O)N(C)c5ccc6c(c5)OCO6)c4)c3C2)cc1 [Compound 075, Methyl 4-[[1-[3-[1,3-benzodioxol-5-yl(methyl)carbamoyl]phenyl]-3-(trifluoromethyl)-5,7-dihydro-4H-pyrazolo[3,4-c]pyridin-6-yl]sulfonyl]benzoate]",< 1
21,"CN1Cc2c(C(F)(F)F)nn(-c3cccc(C(=O)N(C)c4ccc5c(c4)OC(F)(F)O5)c3)c2C(Oc2ccc(C(=O)O)cc2)C1 (centres unmarked) [Compound 274, Ammonium 4-[[1-[3-[(2,2-difluoro-1,3-benzodioxol-5-yl)-methyl-carbamoyl]phenyl]-5-methyl-3-(trifluoromethyl)-6,7-dihydro-4H-pyrazolo[4,3-c]pyridin-7-yl]oxy]benzoate]",< 1
22,"CN(C(=O)c1cccc(-n2nc(C(F)(F)F)c3c2CCCC3)c1)c1ccc2c(c1)OCO2 [Compound 005, N-(1,3-Benzodioxol-5-yl)-N-methyl-3-[3-(trifluoromethyl)-4,5,6,7-tetrahydroindazol-1-yl]benzamide]",< 1
23,"CN(C(=O)c1cccc(-n2nc(C(F)(F)F)c3c2C(Oc2ccc(C(=O)O)cc2)CCC3)c1)c1ccc2c(c1)OC(F)(F)O2 (single isomer, unassigned) [Compound 150, (R) or (S)-4-[[1-[3-[(2,2-Difluoro-1,3-benzodioxol-5-yl)-methyl-carbamoyl]phenyl]-3-(trifluoromethyl)-4,5,6,7-tetrahydroindazol-7-yl]oxy]benzoic acid]",< 1
24,"CN(C(=O)c1cccc(-n2nc(C(F)(F)F)c3c2CCN(C(=O)C(C)(C)C)C3)c1)c1ccc2nccnc2c1 [Compound 141, 3-[5-(2,2-Dimethylpropanoyl)-3-(trifluoromethyl)-6,7-dihydro-4H-pyrazolo[4,3-c]pyridin-1-yl]-N-methyl-N-quinoxalin-6-yl-benzamide]",< 1
25,"CN(C(=O)c1cccc(-n2nc(C(F)(F)F)c3c2C(Oc2cc(C(=O)O)ccn2)CCC3)c1)c1ccc2c(c1)OC(F)(F)O2 (single isomer, unassigned) [Compound 196, (S) or (R)-2-[[1-[3-[(2,2-Difluoro-1,3-benzodioxol-5-yl)-methyl-carbamoyl]phenyl]-3-(trifluoromethyl)-4,5,6,7-tetrahydroindazol-7-yl]oxy]pyridine-4-carboxylic acid]",< 1

# Same assay, conditions: activity (EC50), CFBE41o- and FRT cells with stable expression of mutant CFTR
row,Structure (SMILES),EC50 [µM]
1,"CN(C(=O)c1cccc(-n2nc(C(F)(F)F)c3c2C[C@@H]2CC[C@H]3N2C)c1)c1ccc2c(c1)OCO2 (single isomer, unassigned) [Compound 051, (4S,7R)- or (4R,7S)—N-(Benzo[d][1,3]dioxol-5-yl)-N-methyl-3-(9-methyl-3-(trifluoromethyl)-5,6,7,8-tetrahydro-4,7-epiminocyclohepta[c]pyrazol-1(4H)-yl)benzamide]",1 to 2
